In patent US11351178B2, “Selective HDAC6 inhibitors” (ITALFARMACO S.P.A., priority 2017, dated 2022):

Each compound was assayed against T1, recombinant human HDAC6 (Homo sapiens, UniProt Q9UBN7) (assay: Enzymatic screening on recombinant human HDAC6). Settings: Table 2; read-out: HDAC6 IC50.
T1 sequence (Q9UBN7 1-1215): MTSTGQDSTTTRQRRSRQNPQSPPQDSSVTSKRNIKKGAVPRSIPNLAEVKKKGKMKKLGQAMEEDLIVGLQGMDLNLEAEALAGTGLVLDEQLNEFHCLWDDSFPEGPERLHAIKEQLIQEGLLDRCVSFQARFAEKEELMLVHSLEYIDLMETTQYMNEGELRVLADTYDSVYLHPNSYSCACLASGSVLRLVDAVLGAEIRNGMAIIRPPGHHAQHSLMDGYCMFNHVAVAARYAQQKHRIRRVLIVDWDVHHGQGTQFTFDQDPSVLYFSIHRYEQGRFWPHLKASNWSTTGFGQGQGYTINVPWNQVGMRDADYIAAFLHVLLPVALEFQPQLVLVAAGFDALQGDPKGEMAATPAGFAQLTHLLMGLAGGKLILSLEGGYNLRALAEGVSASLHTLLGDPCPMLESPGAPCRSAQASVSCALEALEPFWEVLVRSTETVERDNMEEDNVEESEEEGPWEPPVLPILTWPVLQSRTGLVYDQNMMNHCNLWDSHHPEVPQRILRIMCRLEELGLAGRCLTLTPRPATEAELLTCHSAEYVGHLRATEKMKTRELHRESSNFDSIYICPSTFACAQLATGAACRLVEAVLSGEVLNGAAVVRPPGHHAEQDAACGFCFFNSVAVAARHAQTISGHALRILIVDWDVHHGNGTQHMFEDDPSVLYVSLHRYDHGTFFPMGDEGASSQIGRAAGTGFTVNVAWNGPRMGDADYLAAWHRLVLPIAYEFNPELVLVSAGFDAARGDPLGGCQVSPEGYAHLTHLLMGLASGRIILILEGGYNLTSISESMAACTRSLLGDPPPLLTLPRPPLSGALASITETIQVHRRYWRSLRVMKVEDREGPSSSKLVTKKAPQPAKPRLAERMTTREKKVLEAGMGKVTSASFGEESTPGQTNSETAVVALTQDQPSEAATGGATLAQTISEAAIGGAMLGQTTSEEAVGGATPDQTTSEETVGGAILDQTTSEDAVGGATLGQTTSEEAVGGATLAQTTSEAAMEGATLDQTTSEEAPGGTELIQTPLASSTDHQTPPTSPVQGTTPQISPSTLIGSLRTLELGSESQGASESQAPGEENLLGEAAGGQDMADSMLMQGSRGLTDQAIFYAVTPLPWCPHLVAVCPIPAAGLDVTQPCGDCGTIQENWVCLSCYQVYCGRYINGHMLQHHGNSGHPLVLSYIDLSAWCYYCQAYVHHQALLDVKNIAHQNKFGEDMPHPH
Type: biochemical
Experimental: Enzymatic activity on recombinant human HDAC6 and HDAC3 was evaluated (Table 2) for each synthesized compound.
After a period of incubation at 30° C. (incubation times vary for different isoforms and are shown in table 1) 25 μL of solution containing the substrate were added. As substrate, FLUOR DE LYS® deacetylase substrate (Enzo Life Sciences, cat #BML-K1104, FdL), FLUOR DE LYS®-Green substrate (Enzo Life Sciences, cat #BML-K1572 FdL_G) and trifluoroacetyl-L-lysine (Tfal)-2× concentrated solution in 25 mM Tris-HCl, pH 8, 130 mM NaCl 0.05% Tween-20 10% glycerol) were used. Following a reaction period at 30° C.
In the case of `O=C(NO)c1ccc(Cn2nnc(-c3ccc(Cl)s3)n2)cc1` [comp. 32, 4-[[5-(5-chloro-2-thienyl)tetrazol-2-yl]methyl]benzenecarbohydroxamic acid], the IC50 is reported as 0.006 µM. `O=C(NO)c1ccc(Cn2nnc(-c3cccc(S(F)(F)(F)(F)F)c3)n2)cc1` [comp. 106, 4-[[5-[3-(pentafluoro-lambda6-sulfanyl)phenyl]tetrazol-2-yl]methyl]benzenecarbohydroxamic acid] showed an IC50 of 0.026 µM. `O=C(NO)c1ccc(Cn2nnnc2-c2nccc3ccccc23)cc1` [comp. 88, 4-[[5-(1-isoquinolyl)tetrazol-1-yl]methyl]benzenecarbohydroxamic acid] showed an IC50 of 0.002 µM. `Cn1c(Sc2c(F)cc(C(=O)NO)cc2F)nnc1-c1cc2ccccc2cn1` [comp. 148, 3,5-difluoro-4-[[5-(3-isoquinolyl)-4-methyl-1,2,4-triazol-3-yl]sulfanyl]benzenecarbohydroxamic acid] was tested, and the IC50 was 0.006 µM. `COc1ccc(C2(c3nnc(Sc4c(F)cc(C(=O)NO)cc4F)n3C)CC2)cc1` [compound 104, 3,5-difluoro-4-[[5-[1-(4-methoxyphenyl)cyclopropyl]-4-methyl-1,2,4-triazol-3-yl]sulfanyl]benzenecarbohydroxamic acid] was tested, and the IC50 was 0.048 µM. In the case of `O=C(NO)c1ccc(Cn2nnc(-c3scc4c3OCCO4)n2)cc1` [comp. 43, 4-[[5-(2,3-dihydrothieno[3,4-b][1,4]dioxin-5-yl)tetrazol-2-yl]methyl]benzenecarbohydroxamic acid], the IC50 is reported as 0.003 µM. With `O=C(NO)c1cc(F)c(Cn2nnnc2-c2ccc(S(F)(F)(F)(F)F)cc2)c(F)c1` [comp. 113, 3,5-difluoro-4-[[5-[4-(pentafluoro-lambda6-sulfanyl)phenyl]tetrazol-1-yl]methyl]benzenecarbohydroxamic acid] the IC50 was 0.158 µM. `O=C(NO)c1ccc(Cn2nnc(-c3ccc(F)cc3)n2)cc1` [comp. 34, 4-[[5-(4-fluorophenyl)tetrazol-2-yl]methyl]benzenecarbohydroxamic acid] showed an IC50 of 0.007 µM. `O=C(NO)c1ccc(Sc2nnc(Cc3ccccc3)n2-c2ccc(F)cc2)cc1` [comp. 27, 4-[[5-benzyl-4-(4-fluorophenyl)-1,2,4-triazol-3-yl]sulfanyl]benzenecarbohydroxamic acid;2,2,2-trifluoroacetic acid] was tested, and the IC50 was 0.077 µM. For `O=C(NO)c1ccc(Cc2nc(-c3cccs3)nn2-c2ccccn2)cc1` [comp. 52, 4-[[2-(2-pyridyl)-5-(2-thienyl)-1,2,4-triazol-3-yl]methyl]benzenecarbohydroxamic acid], the IC50 was 0.344 µM. With `O=C(NO)c1ccc(Cn2nnnc2Cc2ccccn2)cc1` [comp. 133, 4-[[5-(2-pyridylmethyl)tetrazol-1-yl]methyl]benzenecarbohydroxamic acid;2,2,2-trifluoroacetic acid] the IC50 was 0.283 µM. With `O=C(NO)c1cc(F)c(Sc2nnc(-c3cccs3)n2Cc2ccccc2)c(F)c1` [comp. 143, 4-[[4-benzyl-5-(2-thienyl)-1,2,4-triazol-3-yl]sulfanyl]-3,5-difluoro-benzenecarbohydroxamic acid] the IC50 was 0.025 µM. Work on `O=C(NO)c1ccc(Cn2nnnc2-c2ccc(S(F)(F)(F)(F)F)cc2)cc1` [comp. 111, 4-[[5-[4-(pentafluoro-lambda6-sulfanyl)phenyl]tetrazol-1-yl]methyl]benzenecarbohydroxamic acid] yielded an IC50 of 0.271 µM. With `O=C(NO)c1cc(F)c(Cn2nnc(-c3cccc(S(F)(F)(F)(F)F)c3)n2)c(F)c1` [comp. 108, 3,5-difluoro-4-[[5-[3-(pentafluoro-lambda6-sulfanyl)phenyl]tetrazol-2-yl]methyl]benzenecarbohydroxamic acid] the IC50 was 0.108 µM. With `O=C(NO)c1ccc(Nc2nnc(-c3ccccc3)o2)cc1` [comp. 60, 4-[(5-phenyl-1,3,4-oxadiazol-2-yl)amino]benzenecarbohydroxamic acid] the IC50 was 0.136 µM. Compound `O=C(NO)c1ccc(Sc2nnc(-c3ccccc3)n2-c2ccccc2)cc1` [comp. 24, 4-[(4,5-diphenyl-1,2,4-triazol-3-yl)sulfanyl]benzenecarbohydroxamic acid] has an IC50 of 0.056 µM. Compound `Cn1c(Sc2c(F)cc(C(=O)NO)cc2F)nnc1-c1cccc(N2CC[N+](C)([O-])CC2)c1` [comp. 114, 3,5-difluoro-4-[[4-methyl-5-[3-(4-methyl-4-oxido-piperazin-4-ium-1-yl)phenyl]-1,2,4-triazol-3-yl]sulfanyl]benzenecarbohydroxamic acid] has an IC50 of 0.256 µM. `O=C(NO)c1ccc(Cc2nnc(-c3ccc(S(=O)(=O)N4CCCC4)cc3)o2)cc1` [comp. 69, 4-[[5-(4-pyrrolidin-1-ylsulfonylphenyl)-1,3,4-oxadiazol-2-yl]methyl]benzenecarbohydroxamic acid] was tested, and the IC50 was 0.011 µM. Compound `CN(C)c1ccc(-c2nnc(Sc3ccc(C(=O)NO)cc3)n2C)cc1` [comp. 73, 4-[[5-[4-(dimethylamino)phenyl]-4-methyl-1,2,4-triazol-3-yl]sulfanyl]benzenecarbohydroxamic acid] has an IC50 of 0.008 µM. `O=C(NO)c1ccc(Cn2nnnc2-c2ccco2)cc1` [comp. 86, 4-[[5-(2-furyl)tetrazol-1-yl]methyl]benzenecarbohydroxamic acid] showed an IC50 of 0.039 µM. `O=C(NO)c1cc(F)c(Sc2nnc(-c3cccs3)[nH]2)c(F)c1` [comp. 97, 3,5-difluoro-4-[[5-(2-thienyl)-4H-1,2,4-triazol-3-yl]sulfanyl]benzenecarbohydroxamic acid] was tested, and the IC50 was 0.051 µM. `O=C(NO)c1ccc(Cn2nnc(-c3ncc(C(F)(F)F)cc3N3CCOCC3)n2)cc1` [comp. 130, 4-[[5-[3-morpholino-5-(trifluoromethyl)-2-pyridyl]tetrazol-2-yl]methyl]benzenecarbohydroxamic acid] gave an IC50 of 0.837 µM. `COc1ccccc1-n1nc(-c2cccs2)nc1Cc1ccc(C(=O)NO)cc1` [comp. 53, 4-[[2-(2-methoxyphenyl)-5-(2-thienyl)-1,2,4-triazol-3-yl]methyl]benzenecarbohydroxamic acid] gave an IC50 of 0.333 µM. `O=C(NO)c1ccc(Cn2nnnc2-c2ccc(C(F)(F)F)cn2)cc1` [comp. 127, 4-[[5-[5-(trifluoromethyl)-2-pyridyl]tetrazol-1-yl]methyl]benzenecarbohydroxamic acid] gave an IC50 of 0.009 µM. In the case of `O=C(NO)c1cc(F)c(Cn2nnc(-c3ccc(C(F)(F)F)cn3)n2)c(F)c1` [comp. 128, 3,5-difluoro-4-[[5-[5-(trifluoromethyl)-2-pyridyl]tetrazol-2-yl]methyl]benzenecarbohydroxamic acid], the IC50 is reported as 0.045 µM. `O=C(NO)c1ccc(Cn2nnnc2-c2ncc(C(F)(F)F)cc2N2CCOCC2)cc1` [comp. 131, 4-[[5-[3-morpholino-5-(trifluoromethyl)-2-pyridyl]tetrazol-1-yl]methyl]benzenecarbohydroxamic acid] showed an IC50 of 0.057 µM. `Cn1c(Sc2c(F)cc(C(=O)NO)cc2F)nnc1-c1ccc(CN2CCCC2)o1` [comp. 207, 3,5-difluoro-4-[[4-methyl-5-[5-(pyrrolidin-1-ylmethyl)-2-furyl]-1,2,4-triazol-3-yl]sulfanyl]benzenecarbohydroxamic acid] gave an IC50 of 0.007 µM. `Cn1c(Sc2c(F)cc(C(=O)NO)cc2F)nnc1-c1scc2c1OCCO2` [comp. 118, 4-[[5-(2,3-dihydrothieno[3,4-b][1,4]dioxin-5-yl)-4-methyl-1,2,4-triazol-3-yl]sulfanyl]-3,5-difluoro-benzenecarbohydroxamic acid] gave an IC50 of 0.006 µM.
